Experimental findings from ChEMBL document CHEMBL3244251, “Mitomycin antibiotics. Synthesis of 7-methoxy-1-(N-pyrrolidino)mitosene and its methiodide” (J Med Chem, 1978) are described below.

In data set [1] the test system is Enterobacteria phage lambda. The experiment in a line: Induction of lambda phage production in streptomycin-dependent lysogenic Escherichia coli W1709 (lambda) assessed as ratio of plaques in treated culture to control at 0.5 ug/ml. The class given is functional.
For data set [2], the system named is Enterobacteria phage lambda. Description: Induction of lambda phage production in streptomycin-dependent lysogenic Escherichia coli W1709 (lambda) assessed as ratio of plaques in treated culture to control at 0.0125 ug/ml. The class given is functional.
Data set [3] deals with Escherichia coli. Description: Toxicity in streptomycin-dependent lysogenic Escherichia coli W1709 (lambda) at 0.5 ug/ml. The format is organism-based. To be noted: in vivo.
Data set [4] concerns P388. Description: In vivo antitumor activity against mouse P388 cells at 6.4 mg/kg relative to control. The class given is functional.
The subject of data set [5] is Bacillus subtilis. The experiment in a line: Antibacterial activity against Bacillus subtilis assessed as growth inhibition at 0.8 ug/ml in 100 mm disk at pH 8.0 by single-disk method. The settings on record: read-out: IZ. The class given is functional.
Data set [6] concerns Bacillus subtilis. The experiment in a line: Antibacterial activity against Bacillus subtilis assessed as growth inhibition at 0.2 ug/ml in 100 mm disk at pH 8.0 by single-disk method. The format is functional. To be noted: read-out: IZ.
Data set [7] relates to Escherichia coli. The experiment in a line: Toxicity in streptomycin-dependent lysogenic Escherichia coli W1709 (lambda) at 3.1 ug/ml. The class given is organism-based. The settings on record: in vivo.
For data set [8], the system named is Escherichia coli. Description: Toxicity in streptomycin-dependent lysogenic Escherichia coli W1709 (lambda) at 0.8 ug/ml. To be noted: in vivo. The format is organism-based.
Data set [9] deals with Escherichia coli. Description: Toxicity in streptomycin-dependent lysogenic Escherichia coli W1709 (lambda) at 12.5 ug/ml. The class given is organism-based. The settings on record: in vivo.
Data set [10] deals with Enterobacteria phage lambda. Description: Induction of lambda phage production in streptomycin-dependent lysogenic Escherichia coli W1709 (lambda) assessed as ratio of plaques in treated culture to control at 12.5 ug/ml. The class given is functional.
Data set [11] deals with Bacillus subtilis. The experiment in a line: Antibacterial activity against Bacillus subtilis assessed as growth inhibition at 50 ug/ml in 100 mm disk at pH 8.0 by single-disk method. The format is functional. To be noted: read-out: IZ.
For data set [12], the system named is Bacillus subtilis. Description: Antibacterial activity against Bacillus subtilis assessed as growth inhibition at 16.6 ug/ml in 100 mm disk at pH 8.0 by single-disk method. The class given is functional. The settings on record: read-out: IZ.
For data set [13], the system named is Bacillus subtilis. Description: Antibacterial activity against Bacillus subtilis assessed as growth inhibition at 5.5 ug/ml in 100 mm disk at pH 8.0 by single-disk method. The class given is functional. To be noted: read-out: IZ.
Data set [14] relates to Enterobacteria phage lambda. Description: Induction of lambda phage production in streptomycin-dependent lysogenic Escherichia coli W1709 (lambda) assessed as ratio of plaques in treated culture to control at 3.1 ug/ml. The class given is functional.
Data set [15] concerns Enterobacteria phage lambda. Description: Induction of lambda phage production in streptomycin-dependent lysogenic Escherichia coli W1709 (lambda) assessed as ratio of plaques in treated culture to control at 0.8 ug/ml. The class given is functional.
In data set [16] the test system is Enterobacteria phage lambda. Description: Induction of lambda phage production in streptomycin-dependent lysogenic Escherichia coli W1709 (lambda) assessed as ratio of plaques in treated culture to control at 0.2 ug/ml. The class given is functional.
In data set [17] the test system is P388. The experiment in a line: In vivo antitumor activity against mouse P388 cells relative to control. The class given is functional, organism-based.
The subject of data set [18] is Bacillus subtilis. The experiment in a line: Antibacterial activity against Bacillus subtilis assessed as growth inhibition at 12.5 ug/ml in 100 mm disk at pH 8.0 by single-disk method. The format is functional. The settings on record: read-out: IZ.
The test system of data set [19] is Bacillus subtilis. The experiment in a line: Antibacterial activity against Bacillus subtilis assessed as growth inhibition at 3.1 ug/ml in 100 mm disk at pH 8.0 by single-disk method. The format is functional. To be noted: read-out: IZ.

The source made the active and inactive calls. No cut-off for these calls is given here.

For the molecule `CO[C@@]12[C@H](COC(N)=O)C3=C(C(=O)C(C)=C(N)C3=O)N1C[C@@H]1N[C@@H]12` [MITOMYCIN], the T/C in [1] is 17.5; in [2], 8.6; in [4], 283%. Moreover, the Activity result in data set [3] is listed as “Toxic”. For the same molecule, the zone of inhibition at 0.8 µg/mL in [5] was found to be 32 mm. Moreover, the zone of inhibition at 0.2 µg/mL in [6] was 22.8 mm.

For `COC1=C(C)C(=O)c2c(c(COC(N)=O)c3n2CCC3OC(C)=O)C1=O` (configuration not stated), the Activity result in [7], in data set [8] and in [9] was “Toxic” in each case. Also, the T/C in data set [4] is 162%; in data set [10], above 49; in data set [14], above 74; in data set [15] it was above 49; in [16], 27.9. Also, in data set [11], the zone of inhibition at 50 µg/mL was 35 mm. Besides, in data set [12], the zone of inhibition at 16.6 µg/mL is 35 mm. Also, in [13], the zone of inhibition at 5.5 µg/mL was 31.2 mm.

Consider `COC1=C(C)C(=O)c2c(c(COC(N)=O)c3n2CCC3N2CCCC2)C1=O` (configuration not stated), for which the T/C came out at 1.2 in data set [1]; 2.1 in data set [10]; 3.6 in data set [14]; 1.6 in [15]; 1.3 in data set [16]. Also, the result in data set [17] was inactive. Moreover, the Activity result in [9] is listed as “Toxic”. The zone of inhibition at 50 µg/mL in data set [11] turned out to be 33 mm. Moreover, the zone of inhibition at 12.5 µg/mL in data set [18] worked out at 27.8 mm. The zone of inhibition at 3.1 µg/mL in data set [19] stood at 22 mm. Besides, in [5], the zone of inhibition at 0.8 µg/mL was 15.3 mm. Also, in data set [6], the zone of inhibition at 0.2 µg/mL turned out to be 11.3 mm.

`COC1=C(C)C(=O)c2c(c(COC(N)=O)c3n2CCC3[N+]2(C)CCCC2)C1=O` (configuration not stated): the T/C in [1] was determined as 1.1; in [10] it was 2.2; in data set [14], 1.2; in data set [15], 1.1; in data set [16], 1.1. Besides, the outcome in data set [17] was inactive. Moreover, in [11], the zone of inhibition at 50 µg/mL worked out at 14.2 mm. In addition, the zone of inhibition at 12.5 µg/mL in data set [18] was found to be 10 mm.
